Earlier results, collected in article PMC6344135, “Analgesic effects of the cathepsin K inhibitor L-006235 in the monosodium iodoacetate model of osteoarthritis pain” (Pain Reports, 2018).

Columns and labels:
[1] = test system: rabbit ACLT and dog partial medial meniscectomy models; parameters: method as in PMID 29523155; settings: once daily for 7 weeks (rabbit), 28 days (dog)
surgical model of OA = settings: pain not analysed
MIA model of OA pain = settings: preventative and reversal

## C#C[C@@H]1CN(C(=O)[C@H](CC(C)C)NC(=O)c2ccc(-c3nc(N4CCN(C)CC4)sc3F)cc2)[C@@H]2C(=O)CO[C@H]12 [MIV-711]
[1]
  joint pathology: prophylactic and therapeutic effects

## NCCCC(O)(P(=O)(O)O)P(=O)(O)O [alendronate]
Surgical model of OA
  bone resorption and cartilage: inhibited bone resorption and had chondroprotective effects

## O=P(O)(O)C(O)(Cn1ccnc1)P(=O)(O)O [zoledronate]
MIA model of OA pain
  pain behaviour in MIA rats: Significant preventative, and reversal, effects
